Earlier results on one compound are cited in patent publication US6790668B1, “Monitoring patient compliance and bioavailability of drugs by deproteinizing body fluids” (Fundacao Oswaldo Cruz - Fiocruz, priority 1998, dated 2004).

For series [1] the following is noted: human body; the rest by the kidneys.
The conditions of series [2]: organic solvents; acid pH water.

Take `CO[C@H]1/C=C/O[C@@]2(C)Oc3c(C)c(O)c4c(O)c(c(/C=N/N5CCN(C)CC5)c(O)c4c3C2=O)NC(=O)/C(C)=C\C=C\[C@H](C)[C@H](O)[C@@H](C)[C@@H](O)[C@@H](C)[C@H](OC(C)=O)[C@@H]1C` [rifampicin]: the “Share of the drug eliminated in the bile” value in series [1] was “about 80%”. Also, in series [2], the Solubility result is “soluble both in organic solvents and in acid pH water”.
